Values of other authors as cited in patent publication US20230263755A1, “STABILIZATION OF ACETAMINOPHEN IN AQUEOUS SOLUTION” (Nostrum Pharmaceuticals, LLC, priority 2022, published 2023).

half-life: about 2 hours
Structure (SMILES): CC(=O)Nc1ccc(O)cc1 [acetaminophen, N-(4-hydroxyphenyl)acetamide]
